Data published in patent publication US20250041291A1, “COMPOSITIONS AND METHODS FOR TREATING CANCER” (Emmaus Life Sciences, Inc, priority 2021, published 2025).

Key:
Assay type in all cases: cell-based
[1] = tested on: human adipose stromal cells (ASC); assay: caspase 3/7 activity (apoptosis) in human adipose stromal cells; conditions: 25% FBS, 24 h; for activity of caspase 3 or 7 / induction of apoptosis in ASC: all tested concentrations (up to 100 μM)
Method: (§1) MOLM-13 cells were cultured in RPMI1640, red phenol free, in presence of 2, 10 and 25% of fetal bovine serum (FBS). 25% FBS simulates the level of serum present in the blood. Adipose stromal cells (ASC) and human fibroblast primary cells were used as reference controls. Compound A, at various concentrations (0.05 to 100 μM), was added to the cells and incubated for 24 h, with or without the co-treatment with olaparib (a PARP inhibitor, Ola). Olaparib or ibrutinib (a BTK inhibitor) alone was also tested with these cells.

[2] = tested on: MWCL-1 cells (adult Waldenström macroglobulinemia cells) expressing the Myd88 L265P mutation; assay: caspase 3/7 activity (apoptosis) in MWCL-1 cells expressing Myd88 L265P
Method: (§2) In this study, MWCL-1 cells (adult Waldenström macroglobulinemia cells) expressing the Myd88 L265P mutation were used to test different drugs for their effects on cell proliferation and apoptosis. Midostaurin (an inhibitor of FLT3, mido) was used as reference control.
(§3) MWCL-1 cells were cultured in RPMI1640, in presence of 2, 10 and 25% of fetal bovine serum (FBS). The number of MWCL-1 cells decreased only at higher Compound A concentration (50 and 100 μM), during a 24 h treatment, at 2, 10 and 25% FBS (FIGS. 6A, 7A and 8A). Also, the levels of caspase 3/7 activity in the cells were elevated only at the higher concentrations (50 and 100 μM, FIGS. 6B, 7B and 8B), which is consistent with the decreased cell growth.

[3] = tested on: MOLM-13 cells (adult acute myeloid leukemia) expressing the FLT3-ITD mutation; assay: caspase 3/7 activity (apoptosis) in MOLM-13 cells expressing FLT3-ITD
Method: (§4) In this example, MOLM-13 cells (adult acute myeloid leukemia) expressing the FLT3-ITD mutation were used to test Compound A to decrease their cell proliferation and increase their apoptosis level. Midostaurin (mido), an inhibitor of FLT3, was used as a positive control.
as §1

[4] = tested on: human adipose stromal cells (ASC); assay: cell number (proliferation) of human adipose stromal cells after 24 h treatment; conditions: 25% FBS; for ASC growth / ASC number as compared to vehicle control: at 100 μM
Method: as §1

[5] = tested on: MOLM-13 cells (adult acute myeloid leukemia) expressing the FLT3-ITD mutation; assay: cell number (proliferation) of MOLM-13 cells expressing FLT3-ITD
Method: as §4, §1

[6] = tested on: MWCL-1 cells (adult Waldenström macroglobulinemia cells) expressing the Myd88 L265P mutation; assay: cell number (proliferation) of MWCL-1 cells expressing Myd88 L265P
Method: as §2, §3

[7] = tested on: human fibroblast primary cells; assay: cell growth (proliferation) of human fibroblast primary cells; conditions: at 100 μM, but not at lower concentrations; 25% FBS; 24 h
Method: as §1

[8] = tested on: human fibroblast primary cells; assay: caspase 3/7 activity (apoptosis) in human fibroblast primary cells; conditions: 25% FBS, 24 h
Method: as §1

[9] = alone, at 10 μM, 2, 10 or 25% FBS
[10] = 1 to 100 μM, dose-dependent, 2% or 10% FBS, 24 h

Compound | activity of caspase 3 or 7 / induction of apoptosis in ASC [1] | caspase 3/7 activity in MWCL-1 cells ([2]; at 50, 100 μM, 25% FBS) | apoptotic levels of MOLM-13 cells [3, 9] | ASC growth / ASC number as compared to vehicle control [4] | numbers of MOLM-13 cells [5, 9] | efficiency compared with midostaurin (MWCL-1 cell number and caspase 3/7 activity) ([6]; both at 100 μM, 25% FBS) | number of MWCL-1 cells ([6]; only at 50 and 100 μM, 24 h treatment, 2, 10 and 25% FBS) | cell growth of human fibroblast primary cells [7] | apoptosis of the fibroblasts ([8]; tested concentrations) | levels of caspase 3/7 activity in MWCL-1 cells ([2]; only at 50 and 100 μM, 24 h, 2, 10 and 25% FBS) | level of caspase 3/7 activity in MOLM-13 cells [3, 10] | cell number increase of human ASC as compared to vehicle control ([4]; at 50 and 100 μM but not at lower concentrations) | numbers of MOLM-13 cells [5, 10] | response of MOLM-13 cells to anti-cancer effects (proliferation and apoptosis) ([5]; 25% FBS, 24 h) | efficiency compared with the other compound (cell numbers and caspase 3/7 activity, MOLM-13) ([5]; at higher doses) | apoptosis (caspase 3/7 activities) of ASC ([1]; at 100 μM, but not at lower concentrations) | caspase 3/7 activities in the fibroblasts ([8]; at 100 μM)
4-[(3-[(4-cyclopropylcarbonyl)piperazin-1-yl]carbonyl)-4-fluorophenyl]methyl(2H)phthalazin-1-one [olaparib, reference compound] | did not induce apoptosis | increased the caspase 3/7 activity | increased the apoptotic levels | inhibited ASC growth | did not decrease |  |  |  |  |  |  |  |  |  |  |  | 
CN1CCN(C(=O)CCCc2cn(-c3ccccc3)c(NC(=O)c3cccc(-c4cnn(C)c4)c3)n2)CC1 [Compound A, 3-(1-methyl-1H-pyrazol-4-yl)-N-(4-(4-(4-methylpiperazin-1-yl)-4-oxobutyl)-1-phenyl-1H-imidazol-2-yl)benzamide] | did not change the activity of caspase 3 or 7 |  |  |  |  | more efficient than midostaurin | decreased | slower cell growth | No apoptosis | elevated | elevated | slower cell number increase | decreased | responded to the anti-cancer effects | more efficient at higher doses than midostaurin |  | 
C=CC(=O)N1CCC[C@@H](n2nc(-c3ccc(Oc4ccccc4)cc3)c3c(N)ncnc32)C1 [ibrutinib, 1-[(3R)-3-[4-Amino-3-(4-phenoxyphenyl)-1H-pyrazolo[3,4-d]pyrimidin-1-yl]piperidin-1-yl]prop-2-en-1-one] |  |  |  | decrease of ASC number |  |  |  |  |  |  |  |  |  |  |  | induced apoptosis | increased the caspase 3/7 activities
